{"source": "patent US20260076986A1", "about": "(priority 2022, published 2026)", "key": {"[1]": {"tested_on": "transgenic AD mice", "conditions": "cited from earlier work"}, "[2]": {"tested_on": "animals", "conditions": "20-40 mg/kg/day over 3 to 4 months; cited from earlier work"}, "[3]": {"conditions": "capsules or different food sources; cited from earlier work"}, "[4]": {"conditions": "cited from earlier work"}, "[5]": {"tested_on": "glutathione reductase and superoxide desmutases", "conditions": "periods of days to weeks; cited from earlier work"}, "[6]": {"target": "T1, amyloid beta (Homo sapiens, UniProt P05067)", "T1 construct": "cleaved by alpha and beta secretases, producing free amyloid beta peptide", "T1 sequence (P05067 672-713 limits assumed)": "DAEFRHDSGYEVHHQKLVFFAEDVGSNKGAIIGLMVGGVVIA", "assay": "in vitro formation and breakdown of amyloid beta oligomers, aggregates and fibrils", "format": "biochemical", "conditions": "approximately", "text": "Scyllo-inositol is a natural sugar found in many nutrients, including coconut, carrots, grapes and citrus fruits.\nThus, our target concentration in the CSF (which we assume to be similar to the interstitial fluid in the brain) is approximately 2-5 ugm/ml."}, "[7]": {"tested_on": "mild and moderate AD patients", "assay": "phase 2 study of scyllo-inositol 250 mg BID in mild and moderate AD patients over 78 weeks", "format": "in vivo, human", "text": "The inclusion of mild AD patients with an MMSE score of 20 and 21 was sufficient to mask the efficacy observed in mild AD patients with an MMSE from 22-26.\nScyllo-inositol is a drug that, in oral form, crosses the blood-brain barrier to achieve low mM levels in the blood. […] See McLaurin, J. et. al., J Mol. Biol. (1998): 183-194. […] The population of AD patients in the study was mild to moderate Alzheimer's disease having MMSE of 16-26. […] See Salloway, et al. Neurology 2011; 77:1253-1262.\nA randomized, double blind placebo-controlled study phase 2 study explored the safety and efficacy of 250 mg BID administered to mild and moderate AD patients over 78 weeks. One of the primary endpoints used to measure changes in cognition was the Neuropsychological Test Battery (NTB) as well as measuring the levels of biomarkers in the CSF such as Amyloid beta 42 and phosphorylated Tau. The primary analysis compared 250 mg BID […] and placebo (n=82) in mild to moderate patients, and an additional pre-specified analysis was performed in the placebo and treated mild AD patients. […] Similar trends were also observed in other cognition and function tests such CSR-SoB and ADCS-ADL."}, "[8]": {"assay": "scyllo-inositol levels in CSF of AD patients", "format": "in vivo, human", "conditions": "250 mg BID"}, "[9]": {"assay": "clinical safety review of scyllo-inositol (ELND005) studies", "format": "in vivo, human", "conditions": "clinical studies of up to 2.5 years", "description": "In the completed studies, […] have been exposed to at least a single dose of ELND005 (161 unique healthy subjects in Phase 1 studies, 306 unique patients in Phase 2 studies). The 306 Mild and Moderate AD patients were treated with ELND005 doses of up to 2000 mg BID. In the completed Phase 2 studies, the duration of treatment was up to 2.5 years with the 250-mg BID dose. The Phase 2 AD studies provided a total of 370.2 patient-years of exposure at any dose. At the dose of 250 mg BID, there have been a total of 154.8 patient-years of exposure in AD patients.\nOf the 161 healthy subjects who received ELND005 in Phase 1 studies, 87 were between the ages of 18 and 54 years (inclusive) and 74 were between ages of 55 and 81 years (inclusive). The dose range was 70 to 7000 mg in single-dose studies and 200 to 3000 mg BID in multiple-dose studies for up to 10 days. Patients with AD were treated with 250 mg BID to 2000 mg BID."}, "[10]": {"tested_on": "rats", "conditions": "rat, in vivo, 6 months"}, "[11]": {"tested_on": "dogs"}, "[12]": {"tested_on": "Alzheimer transgenic mouse model", "conditions": "cited from earlier work"}, "[13]": {"tested_on": "mild and moderate AD patients", "conditions": "cited from earlier work"}, "[14]": {"tested_on": "neurons", "conditions": "cited from earlier work"}, "[15]": {"tested_on": "hippocampal slices", "conditions": "infusion in rat brain, toxic amyloid beta oligomers; cited from earlier work"}, "[16]": {"conditions": "nine phase 1 studies; cited from earlier work"}}}
{"molecule": "O=c1cc(-c2ccc(O)cc2)oc2cc(O)cc(O)c12", "note": "[apigenin, 4′,5,7-trihydroxyflavone]", "values": [{"measurement": "amyloid beta half life", "setting": "[1]; Transgenic AD mice, not observed with deleted Aquaporin 4 gene", "result": "significantly reduced"}, {"measurement": "efficacy dose observed in animal models", "setting": "[1]; approximately", "result": "20 to 40", "unit": "mg/kg/day"}, {"measurement": "increase of clearance of amyloid beta in the brain", "setting": "[1]; mouse, in vivo", "result": "30-40%"}, {"measurement": "aquaporin channels on perivascular astrocytes", "setting": "[1]; transgenic AD mice", "result": "increased the expression and localization"}, {"measurement": "cognition", "setting": "[1]; transgenic AD mice", "result": "reversed the loss in cognition to normal levels"}, {"measurement": "reduction of amyloid beta 42 burden", "setting": "[1]; transgenic mouse model", "result": "20-30%"}, {"measurement": "adverse events", "setting": "[2]", "result": "No adverse events"}, {"measurement": "adverse events", "setting": "[3]", "result": "No signs of adverse events"}, {"measurement": "water solubility", "setting": "[4]", "result": "reduced water solubility"}, {"measurement": "level of apigenin resulting in elevated glutathione reductase and superoxide desmutases", "setting": "[5]", "result": "3.5-4.5 mgs per day"}]}
{"molecule": "O[C@H]1[C@H](O)[C@@H](O)[C@H](O)[C@@H](O)[C@@H]1O", "note": "[scyllo-inositol]", "values": [{"measurement": "concentration sufficient to prevent formation of oligomers and break down amyloid beta aggregates and fibrils", "setting": "[6]", "result": "2-5 ugms/ml"}, {"measurement": "efficacy on cognition and function by MMSE subgroup", "setting": "[7]; mild AD patients with MMSE score of 22-26", "result": "more pronounced"}, {"measurement": "NTB score", "setting": "[7]; mild AD patients, 250 mg BID", "result": "very strong signal in improvement"}, {"measurement": "parameters measured in the NTB that showed improvement", "setting": "[7]; mild AD patients, 250 mg BID", "result": "7 of the 9"}, {"measurement": "changes in cognition", "setting": "[7]; mild to moderate patient population, 250 mg BID", "result": "not statistically significant"}, {"measurement": "average scyllo-inositol levels in CSF", "setting": "[8]", "result": 15, "unit": "µg/mL"}, {"measurement": "dose considered safe for long-term use", "setting": "[9]", "result": 250, "unit": "mg BID"}, {"measurement": "dose safe with no observed pathologies", "setting": "[10]", "result": "up to 2500 mg/kg/day"}, {"measurement": "dose safe and no pathologies", "setting": "[11]; dog, in vivo, 12 months", "result": 300, "unit": "mg/kg/day"}, {"measurement": "adverse events", "setting": "[11]; dogs, 2000 mg/kg/day for 12 months, skin inflammation, gingivitis and pneumonia", "result": "some mild adverse events"}, {"measurement": "reduction of amyloid beta 42 in the brain", "setting": "[12]; 10 mg/kg and 30 mg/kg", "result": "20-30%"}, {"measurement": "reduction of number of plaques", "setting": "[12]; 10 mg/kg and 30 mg/kg", "result": "25-50%"}, {"measurement": "cognition in Morris Water maze test", "setting": "[12]; oral treatment", "result": "comparable to normal animals"}, {"measurement": "subgroup analysis versus placebo", "setting": "[13]; MMSE 23-26, 250 mg BID", "result": "did not achieve statistical significance"}, {"measurement": "primary endpoints NTB and/or ADCS-ADL versus placebo", "setting": "[13]; full analysis set, 250 mg BID, 78 weeks, MMSE 16-26", "result": "no statistical significance"}, {"measurement": "efficacy on NTB, CDR-SoB, ADCS-ADL and ADAS-Cog", "setting": "[13]; mild and moderate AD patients, overall population", "result": "failed to show efficacy"}, {"measurement": "primary endpoints NTB and ADCS-ADL, preventing decline versus placebo", "setting": "[13]; per-protocol sets, 250 mg BID, 78 weeks", "result": "no statistically significant different"}, {"measurement": "amyloid beta binding to neurons and neurotoxicity", "setting": "[14]", "result": "prevent amyloid beta binding to neurons and reduced neurotoxicity"}, {"measurement": "long term potentiation", "setting": "[15]", "result": "restores long term potentiation"}, {"measurement": "blood brain barrier passage", "setting": "[16]", "result": "crosses the blood brain barrier"}, {"measurement": "plasma levels versus dose", "setting": "[16]", "result": "dose proportional increase"}]}
